{"source": "patent US20240060990A1", "about": "“SPATIAL SIGNALING NETWORKS FOR MULTIPLEXED DRUG RESPONSE MEASUREMENT AND MODELING” (Georgia Tech Research Corporation, priority 2022, published 2024)", "format_in_all_cases": "cell-based, human", "key": {"HCC827 cells": {"system": "HCC827 cells", "test": "PPI network motif frequency in HCC827 cells", "source_text": "Spatial Graph Construction: For each detected PPI in a cell, the corresponding 2D or 3D localization was extracted, and a node was assigned in the created graph. The node labels are assigned by creating a one-hot encoding of the corresponding PPI detected for the node. Delaunay triangulation was used to create edges connecting the nodes in the graph and therefore create a PPI spatial graph for each cell. The models are trained in a multi-instance learning framework, that is a cell label for each instance was assigned based on the cell treatment condition of a group."}, "p-ERK/c-Myc": {"system": "p-ERK/c-Myc", "test": "RapMPI (multiplexed PLA) PPI counts in HCC827 cells", "procedure": "Following that, the cells were then fixed and permeabilized with 1.6% formaldehyde in 1×PBS for 10 minutes at RT and 0.5% Triton X-100 for 10 minutes at RT, respectively. The cells were then blocked using a cell staining medium (CSM) containing 0.5% BSA, and 0.02% Sodium Azide in PBS. […] HCC827 cells were stained with p-ERK overnight followed by 1-hour incubation of secondary antibodies at RT, and 10 mins DAPI staining. The cells were then imaged at 40× magnification, and the intensity levels were analyzed. […] The coverslip was mounted to an acrylic holder for multiple cycles of staining.\nRapMPI on cell cultures: For single color detection, each coverslip prepared with cells was stained with multiple PPIs with one PPI per cycle. The cells were fixed, permeabilized, and then ready for the following staining steps: 1) block the sample with Duolink blocking solution; 2) incubate it with one pair of proteins, conjugated to one PLUS and one MINUS oligonucleotide at 4° C. overnight.\nPPI detection: PPI signals were detected using a custom algorithm leveraging a traditional image processing pipeline. More specifically, each PPI image was preprocessed as followed: images were first transformed using a top-hat filter of size 3 pixels to reduce the noise around PPI signals, then Laplacian of Gaussian images was used to detect bright local maxima as PPI signals. In 3D images, double detection of PPI was filtered out at the same position in consecutive Z stacks. After detecting all the PPI locations in 3D, PPI was observed within a 2.5-pixel radius (0.045 um) by creating a PPI neighborhood graph of radius threshold 2.5 pixels and getting all connected components in the graph. Finally, the mean position of the unique connected components in the graph was extracted as identified unique PPI signals in 3D."}, "p-EGFR (Tyr1086)": {"system": "p-EGFR (Tyr1086)", "test": "RapMIF multiplexed immunofluorescence in PC9 cells, p-EGFR", "details": "40 nM", "procedure": "Following that, the cells were then fixed and permeabilized with 1.6% formaldehyde in 1×PBS for 10 minutes at RT and 0.5% Triton X-100 for 10 minutes at RT, respectively (FIG. 10A). The cells were then blocked using a cell staining medium (CSM) containing […]. […] PC9 cells were stained with p-EGFR and β-tubulin overnight followed by 1-hour incubation of secondary antibodies at RT, and 15 mins DAPI staining. The cells were then imaged at 40× magnification, and the cell number was analyzed using ImageJ. […] The coverslip was mounted to an acrylic holder for multiple cycles of staining."}, "PC9 cells": {"system": "PC9 cells", "test": "Cell survival: cell number on coverslip counted in ImageJ", "procedure": "The cell survival was measured based on the cell number on the coverslip. […] The cells were stained with p-EGFR, and β-tubulin and three ROIs were imaged for each concentration at 40×. The cell number on each ROI was counted in ImageJ following the steps: import the Channel image, make binary, convert it to masks, analyze particles, and then choose “masks” under the “show” option."}, "p-AKT(S473)": {"system": "p-AKT(S473)", "test": "RapMIF multiplexed immunofluorescence in PC9 cells, p-AKT", "details": "40 nM, 48 hours vs control", "source_text": "RapMIF: The RapMIF setup consisted of an autosampler that transferred antibodies and performed washes of the sample automatically and controlled by a custom-written python code (FIGS. 10A-10D). The buffers used during the procedure are 1×PBS (D8537, Sigma), CSM, and Fluorophore bleaching solution. PBS 1× was the wash buffer for the stabilization of the cells and the tubes. CSM was the imaging buffer that helped in the annealing of antibodies with the cells. Fluorophore bleaching solution was the strip buffer used to remove staining after each cycle. The walls on the 96-well plate for the antibodies were pre-washed with 1×PBS. The well plate was covered with foil stickers to ensure a dark condition. […] Once the cells were mounted and the antibodies and buffers were ready for transfer, automatic staining was done by running Python code. […]\nCell multiplexing: Each coverslip prepared with cells was stained with 25 markers using a total of 11-12 cycles (FIG. 10C). […] To quantify the frequencies belonging to the signal that disappears after bleaching, a Fourier analysis of before and after bleaching was performed to indicate the difference in frequencies belonging to the signal.\nImage intensity: From nuclei and cytosol cell masks, the mean intensity of markers in each cell area was calculated. […]"}}, "note": "“Also recorded” adds a separate entry of the source."}
{"compound": "C=CC(=O)Nc1cc(Nc2nccc(-c3cn(C)c4ccccc34)n2)c(OC)cc1N(C)CCN(C)C", "note": "[Osimertinib]", "values": [{"measurement": "motif 9 (p-ERK/c-Myc & p-ERK/c-Myc) autoregulation", "setting": "HCC827 cells; 5 PPI network", "result": "Increased autoregulation"}, {"measurement": "three-node motif 17 (Tead1/Yap&Tead1/Yap& p-ERK/c-Myc)", "setting": "HCC827 cells; 5 PPI network", "result": "more interactions"}, {"measurement": "autoregulation of cyclin D1/CDK2 in motif 0 and motif 45", "setting": "HCC827 cells; 9 PPIs dataset", "result": "inhibited"}, {"measurement": "interaction between sox2/oct4 and Cyclin D1/CDK4 (motif 2, motif 47)", "setting": "HCC827 cells; 9 PPIs dataset", "result": "downregulation"}, {"measurement": "P-ERK/c-Myc interactions (PPI count)", "setting": "p-ERK/c-Myc; 100 nM, 12 h, 5 PPI dataset", "result": "significantly increased interactions; also recorded: upregulation"}, {"measurement": "p-ERK/c-Myc PPI", "setting": "p-ERK/c-Myc; 12 hours, 9 PPI dataset", "result": "effectively inhibited"}, {"measurement": "p-EGFR localization (cell membrane, nucleus)", "setting": "p-EGFR (Tyr1086); 48 hours", "result": "mainly localized in the cell membrane and the nuclear p-EGFR expression was relatively low"}, {"measurement": "p-EGFR (Tyr1086) expression level in multiplexed heatmap", "setting": "p-EGFR (Tyr1086); 48 hours vs control", "result": "remained minimally enhanced; also recorded: remained minimally altered"}, {"measurement": "spatial continuity of p-EGFR distribution on the cell membrane", "setting": "p-EGFR (Tyr1086); 48 hours vs control", "result": "disrupted spatial continuity in the p-EGFR distributions on the cell membrane"}, {"measurement": "cell viability, higher vs lower drug concentrations", "setting": "PC9 cells; 48-hour treatment", "result": "further decreased the cell viability"}, {"measurement": "number of cells adhering to the coverslips", "setting": "PC9 cells; 48-hour treatment, 0, 20, 40, 60 nM", "result": "decreased as the drug concentration has increased; also recorded: reduced the number of adherent PC9 cells compared to untreated ones"}, {"measurement": "p-AKT expression", "setting": "p-AKT(S473)", "result": "consistently downregulated; also recorded: consistent downregulation"}]}
